Assay results as given in US8669072B2, “Oxadiazoline ligands for modulating the expression of exogenous genes via an ecdysone receptor complex” (Intrexon Corporation, priority 2003, dated 2014).
Read-outs that look alike come from different tables or passages of the source.

Experiments:
[1] = target: T1, GAL4 DBD-CfEcR(DEF)/VP16AD-MmRXRE (Choristoneura fumiferana, UniProt O77240); test: 13B3 assay: luciferase reporter gene induction in stable CHO clone 13B3; type: cell-based; conditions: for Fold Induction Average, 13B3 assay: 33/33.3 μM ligand, RLU relative to DMSO; for Fold Induction Average, 13B3 assay / fold induction at 33.3 µM: 48 h; for fold induction at 33.3 µM: read-out: Fold Induction Average, 13B3 assay; for Rel Max FI, 13B3 assay: maximum fold induction relative to that of GS-E ligand
T1 construct: The wild-type D, E, and F domains from spruce budworm Choristoneura fumiferana EcR (“CfEcR-DEF”)
How it was run: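 Stable CHO clone 13B3 co-expressing GAL4 DBD-CfEcR(DEF) and VP16AD-MmRXRE with a GAL4 RE-luciferase reporter; ligands from DMSO stocks diluted 300-fold. Luciferase read by luminescence 48 h after treatment, duplicate wells averaged. Fold induction = RLU treated/RLU DMSO; EC50 from three-parameter logistic fit.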

[2] = target: T2, Bombyx mori EcR (VBE) (Bombyx mori, UniProt P49881); test: Z3 assay: β-galactosidase reporter gene induction in HEK-293 clone Z3 (CVBE / 6XEcRE LacZ); type: cell-based; conditions: for Fold Induction Average, Z3 assay: 33 μM ligand, 48 h, RLU relative to DMSO; for fold induction at 33 µM: HEK293, 48 h, read-out: Fold Induction Average, Z3 assay; for Rel Max FI, Z3 assay: maximum fold induction relative to that of GS-E ligand
T2 construct: expressed in transfected cells; host or cells: Human HEK-293 cells, retrovirally infected, clone Z3
T2 sequence (P49881 86-606 limits assumed): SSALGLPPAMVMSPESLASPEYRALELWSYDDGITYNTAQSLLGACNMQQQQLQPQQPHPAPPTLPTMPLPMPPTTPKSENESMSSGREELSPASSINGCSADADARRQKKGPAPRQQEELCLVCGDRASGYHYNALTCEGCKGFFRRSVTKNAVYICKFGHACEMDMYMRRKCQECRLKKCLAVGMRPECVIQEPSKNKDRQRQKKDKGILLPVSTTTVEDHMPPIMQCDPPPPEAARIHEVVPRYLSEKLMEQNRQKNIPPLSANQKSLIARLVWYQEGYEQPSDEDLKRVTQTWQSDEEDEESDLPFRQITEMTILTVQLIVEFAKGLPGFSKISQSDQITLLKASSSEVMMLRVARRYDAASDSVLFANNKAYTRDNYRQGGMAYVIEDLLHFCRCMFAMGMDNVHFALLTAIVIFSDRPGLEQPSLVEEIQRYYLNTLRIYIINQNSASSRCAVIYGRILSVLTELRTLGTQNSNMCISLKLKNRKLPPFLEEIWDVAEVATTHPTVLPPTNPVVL
T2 sequence (P19793 1-462 partner): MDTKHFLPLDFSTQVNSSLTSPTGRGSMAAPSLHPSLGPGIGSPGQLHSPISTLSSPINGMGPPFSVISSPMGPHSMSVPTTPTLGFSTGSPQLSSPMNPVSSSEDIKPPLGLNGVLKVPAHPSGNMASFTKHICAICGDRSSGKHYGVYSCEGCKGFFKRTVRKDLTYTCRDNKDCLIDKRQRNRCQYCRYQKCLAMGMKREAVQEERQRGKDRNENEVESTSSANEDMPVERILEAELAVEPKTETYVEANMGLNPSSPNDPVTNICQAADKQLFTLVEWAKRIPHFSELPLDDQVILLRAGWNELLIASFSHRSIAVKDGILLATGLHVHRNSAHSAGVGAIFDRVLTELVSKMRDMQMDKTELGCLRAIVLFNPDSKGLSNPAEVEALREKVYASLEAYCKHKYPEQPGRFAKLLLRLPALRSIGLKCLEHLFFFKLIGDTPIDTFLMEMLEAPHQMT

[3] = tested on: MTA (two-spotted spider mite); test: Insect toxicity contact bioassay, MTA; type: in vivo; conditions: for Insect Toxicity LC50, MTA: in vivo
Experimental: (§1) The compound to be evaluated was dissolved in an appropriate solvent, usually a mix of acetone, methanol, and water. Test solutions were made by serial dilution of a stock test solution with acetone, methanol, and water. Initial evaluations were made at one or more concentrations on one or more of the following insects:
(§2) Contact bioassays (green peach aphid, two-spotted spider mite, white fly) were conducted by applying a solution of the test compound to the inside surface of a Petri dish. The solution was allowed to air-dry, then each dish was infested and the larvae from each treatment were transferred to a bioassay tray. The trays were held for one to seven days, and the mortality rating was determined for each treatment.

[4] = tested on: Beet Armyworm; test: Insect toxicity feeding bioassay, BAW; type: in vivo; conditions: for Insect Toxicity LC50, BAW: in vivo
Experimental: as §1
(§3) Feeding bioassays were conducted in bioassay trays containing insect diet. Treatments were made by applying 50 μL of test solution to the surface of the diet in each of 5 wells. After the test solution dried, each well was infested with a single neonate larva. The trays were held for six days and then the mortality rating was determined for each treatment.

[5] = tested on: Cabbage Looper; test: Insect toxicity feeding bioassay, CL; type: in vivo; conditions: for Insect Toxicity LC50, CL: in vivo
Experimental: as §1, §3

[6] = tested on: Tobacco Budworm; test: Insect toxicity bioassay, TBW; type: in vivo; conditions: for Insect Toxicity LC50, TBW: in vivo
Experimental: as §1, §3
Some of the tobacco budworm tests were conducted as follows. A test solution containing 600 ppm was made by dissolving a compound of the invention in a 1:1 acetone:methanol solution, then adding water to give a 5:5:90 acetone:methanol:water solution, and finally a surfactant was added at an equivalent of 7.37 g of surfactant per 100 L of test solution (1 ounce of surfactant per 100 gallons of test solution). Appropriate dilutions were prepared in water from the 600 ppm solution. A detached cotton leaf, Gossypium hirsutum was placed on moistened filter paper in a Petri dish (100×20 mms). The leaf was sprayed with the test solution using a rotating turntable sprayer and allowed to dry. The dish was infested with 10 first instar larvae of the tobacco budworm and covered with the lid. If the larvae were alive two days after treatment, fresh untreated cotton leaves were added. All treatments were maintained at 23.9-26.7° C. (75-80° F.) under fluorescent light in a well-ventilated room. Percent mortality was determined at four days after treatment.

[7] = tested on: WFN (white fly); test: Insect toxicity contact bioassay, WFN; type: in vivo; conditions: for Insect Toxicity LC50, WFN: in vivo
Experimental: as §1, §2

[8] = target: CfEcR (CDEF)/CfUSP, GST fusion protein (Choristoneura fumiferana, UniProt O77240); test: CfEcR (CDEF)/CfUSP GST fusion protein assay; type: binding
[9] = target: T3, GAL4 DBD (1-147)-CfEcR(DEF)/VP16AD-βRXREF-LmUSPEF (Choristoneura fumiferana, UniProt O77240); test: cell-based; conditions: for fold induction at 33.3 µM: 48 h, read-out: Fold Induction Average, 27-63 assay; for Rel Max FI, 27-63 assay: maximum fold induction relative to that of GS-E ligand
T3 construct: The wild-type D, E, and F domains from spruce budworm Choristoneura fumiferana EcR (“CfEcR-DEF”)
How it was run: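 CHO clone stably carrying the GAL4-DBD–spruce budworm EcR(DEF) and VP16–RXR/USP chimeric receptor with a GAL4-responsive luciferase reporter; ligand added from DMSO stock diluted 300-fold.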

[10] = GST fusion protein, read-out: CfEcR EC50

Sequence of CfEcR (CDEF)/CfUSP, GST fusion protein (O77240 entry or part of it): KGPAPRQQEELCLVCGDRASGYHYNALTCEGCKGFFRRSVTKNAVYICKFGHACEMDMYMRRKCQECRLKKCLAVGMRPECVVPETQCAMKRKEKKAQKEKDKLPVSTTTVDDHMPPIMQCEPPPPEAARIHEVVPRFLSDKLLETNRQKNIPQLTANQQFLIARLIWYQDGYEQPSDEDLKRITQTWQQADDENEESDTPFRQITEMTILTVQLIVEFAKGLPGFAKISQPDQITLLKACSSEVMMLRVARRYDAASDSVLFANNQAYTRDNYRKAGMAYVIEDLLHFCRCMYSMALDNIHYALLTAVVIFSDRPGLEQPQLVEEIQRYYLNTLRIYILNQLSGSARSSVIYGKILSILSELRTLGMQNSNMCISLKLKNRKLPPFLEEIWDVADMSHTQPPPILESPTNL
Sequence of CfEcR (CDEF)/CfUSP, GST fusion protein (O76202 whole entry, further chain, the tested form may be a part): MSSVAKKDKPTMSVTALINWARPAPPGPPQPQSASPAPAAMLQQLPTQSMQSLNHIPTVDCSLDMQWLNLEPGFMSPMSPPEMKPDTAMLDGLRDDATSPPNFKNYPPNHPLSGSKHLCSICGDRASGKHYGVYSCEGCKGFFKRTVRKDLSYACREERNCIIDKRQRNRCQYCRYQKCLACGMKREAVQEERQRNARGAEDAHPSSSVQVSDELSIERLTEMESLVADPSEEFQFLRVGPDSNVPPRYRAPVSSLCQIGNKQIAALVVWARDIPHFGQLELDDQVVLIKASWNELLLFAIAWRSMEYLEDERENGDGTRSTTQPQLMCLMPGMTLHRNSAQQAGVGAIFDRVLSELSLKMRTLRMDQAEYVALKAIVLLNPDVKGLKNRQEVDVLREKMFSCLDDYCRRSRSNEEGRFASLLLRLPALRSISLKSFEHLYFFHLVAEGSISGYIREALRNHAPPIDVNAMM

| SMILES | Fold Induction Average, Z3 assay [2] | Insect Toxicity % control @ 150 ppm, MTA [3] | Insect Toxicity % control @ 150 ppm, BAW [4] [% @ 150] | Insect Toxicity % control @ 150 ppm, CL [5] [% @ 150] | Insect Toxicity % control @ 150 ppm, TBW [6] [% @ 150] | Insect Toxicity % control @ 150 ppm, WFN [7] [% @ 150] | fold induction at 33.3 µM [1] | fold induction at 33 µM [2] | EC50 [1] [µM] | Rel Max FI, 13B3 assay [1] | EC50 [2] [nM] | Rel Max FI, Z3 assay [2] | other results |
| --- | --- | --- | --- | --- | --- | --- | --- | --- | --- | --- | --- | --- | --- |
| CC1(C)ON=C(c2cccc(C(F)(F)F)c2)N1NC(=O)Nc1ccccc1 [RG-120001] | 0.3 | 0% @ 150 | 80 | 20 | 0 | 0 |  |  |  |  |  |  | Fold Induction Average, 13B3 assay [1]: 3.3 |
| CCc1c(OC)cccc1C(=O)NN1C(c2cc(C)cc(C)c2)=NOC12CCOCC2 [RG-120008] | 567.3 |  |  |  |  |  |  |  |  |  |  |  | CfEcR % @ 1 uM [8]: 81% @ 1 uM |
| CCc1ccc(C(=O)NN2C(c3ccccc3OC)=NOC2(C)C)cc1 [RG-120026] |  | 40% @ 150 | 100 | 0 | 0 | 0 | 0.9 | 41.1 |  |  |  |  | EC50 [9]: > 33 µM; fold induction at 33.3 µM [9]: 8.5; Rel Max FI, 27-63 assay [9]: 0 |
| CCc1ccc(C(=O)NN2C(c3ccc(Cl)cc3)=NOC2(C)C)cc1 [RG-120035] |  | 0% @ 150 | 40 | 100 | 0 | 0 | 1.2 | 9.1 |  |  |  |  |  |
| CCC1(C)ON=C(c2cc(C)cc(C)c2)N1NC(=O)c1ccccc1 (stereo not drawn) [RG-120039] |  |  |  |  |  |  |  |  |  |  |  |  | EC50 [8, 10]: 203 nM |
| CCC1(C)ON=C(c2cc(C)cc(C)c2)N1NC(=O)Nc1ccccc1 (stereo not drawn) [RG-120051] |  |  |  |  |  |  |  |  |  |  |  |  | EC50 [8, 10]: 147 nM |
| CCc1ccc(C(=O)NN2C(c3cc(C)cc(C)c3)=NOC2(C)C)cc1 [RG-120060] |  | 0% @ 150 |  |  |  | 0 | 16.8 | 108 |  |  |  |  | EC50 [9]: > 33 µM; Rel Max FI, 27-63 assay [9]: 0.01; Kd ([8]; GST fusion protein, read-out: CfEcR Kd): 38 nM; Insect Toxicity LC50, BAW [4]: 23 ppm; Insect Toxicity LC50, CL [5]: 47 ppm; Insect Toxicity LC50, TBW [6]: >150 ppm |
| CCc1c(OC)cccc1C(=O)NN1C(c2cc(C)cc(C)c2)=NOC1(C)CC (stereo not drawn) [RG-120069] |  |  |  |  |  |  | 478 |  | 2.95 | 1.02 | 1680 | 0.8 | EC50 [9]: 3.31 µM; fold induction at 33.3 µM [9]: 1870; Rel Max FI, 27-63 assay [9]: 1.11; EC50 [8]: 14.2 nM; Insect Toxicity LC50, MTA [3]: 146 ppm; Insect Toxicity LC50, BAW [4]: 4.7 ppm; Insect Toxicity LC50, CL [5]: 4.7 ppm; Insect Toxicity LC50, TBW [6]: >150 ppm; Insect Toxicity LC50, WFN [7]: >150 ppm |
| Cc1cccc(C(=O)NN2C(c3cc(C)cc(C)c3)=NOC2(C)C)c1 [RG-120077] | 14.6 | 0% @ 150 | 50 | 100 | 0 | 0 |  |  |  |  |  |  | Fold Induction Average, 13B3 assay [1]: 0.4 |
| COc1ccc(C2=NOC(C)(C)N2NC(=O)c2ccccc2)c(OC)c1 [RG-120096] |  | 74 @ 150% | 0 | 60 | 0 | 55 | 0.2 | 0.7 | > 33.3 | 0 | > 50000 | 0 |  |
| CCOC(=O)CCC(=O)NN1C(c2cc(C)cc(C)c2)=NOC1(C)CC (stereo not drawn) [RG-120126] |  | 0% @ 150 | 0 | 0 | 0 | 79 | 0.4 | 2.4 | > 33.3 | 0 | > 50000 | 0.04 | EC50 [8, 10]: 136 nM |
| Cc1cc(C)cc(C2=NOC3(CCCC3)N2NC(=O)c2cc3ccccc3s2)c1 [RG-120152] | 59.9 |  |  |  |  |  |  |  |  |  |  |  | Fold Induction Average, 13B3 assay [1]: 264.3; CfEcR % @ 1 uM [8]: 92% @ 1 uM |
| CCC1(C)ON=C(c2cc(C)cc(C)c2)N1NC(=O)c1cc2ccccc2s1 (stereo not drawn) [RG-120161] |  |  |  |  |  |  | 59.9 |  | 3.46 | 0.14 | 2140 | 0.08 | EC50 [8]: 62.4 nM; Insect Toxicity LC50, MTA [3]: 110 ppm; Insect Toxicity LC50, BAW [4]: 87 ppm; Insect Toxicity LC50, CL [5]: 17 ppm; Insect Toxicity LC50, TBW [6]: >150 ppm; Insect Toxicity LC50, WFN [7]: >150 ppm |
